Measured values reported in patent publication US9243281B2, “Neuroprotective chemicals and methods for identifying and using same” (Board of Regents of The University of Texas System, priority 2013, dated 2016).

Key:
NAD in U2OS cells = assay: intracellular NAD abundance by LC-MS/MS; type: cell-based; settings: U2OS cells exposed to sub-lethal doxorubicin
Procedure: FIGS. 5A-5C. Active variants of P7C3 compensate NAD exhaustion induced by doxorubicin. (FIG. 5A) U2OS cells were treated with the indicated concentration of P7C3-A20. Cells were harvested and NAD metabolites were measured by LC-MS/MS. Abundance of NAD was normalized relative to total metabolites (Experimental Procedures). The data are represented as the mean±SD of experimental duplicates. […] Cells were grown in 96-well plates and treated with the indicated concentrations of P7C3-A20, P7C3-S243, P7C3-S6 or P7C3-S117 together with 0.5 μM doxorubicin for 45 h. Cellular NAD abundance was determined by NAD/NADH Glo assay kit. […] The activities in both assays are represented by (Sinf−S0)/AC50 in dose response curves of test compounds.
Doxorubicin is a DNA-damaging toxin known to activate the poly ADP-ribose polymerase (PARP) enzyme as a central feature of DNA repair (Pacher et al., 2002) (Munoz-Gamez et al., 2009). […] U2OS cells exposed to sub-lethal levels of doxorubicin were lysed in methanol, cleared by centrifugation and subjected to metabolite analysis by mass spectrometry. These methods allow for the simultaneous, quantitative analysis of hundreds of intracellular metabolites (Tu et al., 2007) (Wang et al., 2009). […] The mass spectrometry methods used to quantitate metabolite levels measured NAD relative to hundreds of other intracellular metabolites. […]

[1] = tested on: NAD levels in doxorubicin-treated U2OS cells; assay: NAD rebound assay in doxorubicin-treated cells (NAD/NADH Glo); type: cell-based; settings: 0.5 μM doxorubicin 45 h
Procedure: FIG. 12. Five-point dose response curves (DRC) of all tested compounds in NAD rebound assay. […] Cellular NAD abundance was determined by NAD/NADH Glo assay kit.
Each chemical variant of P7C3 was co-incubated with doxorubicin on cultured U2OS cells at five doses (0.03 uM, 0.1 uM, 0.3 uM, 1 uM and 3 uM). After 45 hrs incubation, cells were assayed for intracellular levels of NAD (FIG. 12).
Assay was performed following the manufacturer's protocol. NAD/NADH-Glo reagent contains the NAD Cycling Enzyme that converts NAD+ to NADH. In the presence of NADH, the enzyme reductase reduces a proluciferin reductase substrate to form luciferin. Cells were grown in 96- or 384-well plates. 50 μl or 15 μl of NAD/NADH-Glo™ Detection Reagent were added to each well. The resulting luminescence signals were measured by Tecan plate reader or EnVison multimode plate reader (Perkin Elmer).

U2OS cells [2] = assay: cell survival assay with seven other toxins; type: cell-based; settings: 5 μM P7C3-A20 2 h prior to toxins for 72 h
Procedure: FIG. 8. P7C3A20 protects U2OS cells from doxorubicin-mediated toxicity. U2OS cells were treated with 5 μM P7C3-A20 for 2 h prior to incubation with the indicated concentrations of eight toxins for 72 h.
Progress on studies aimed towards resolving the mode of action of P7C3 has been hampered by the fact that we have been limited to studies of drug action in living animals. Our standard assay of neurogenesis requires, under optimal conditions, a one month turn-around from the synthesis of a new derivative to a score for its neuroprotective activity. In efforts to break this logjam, we tested whether P7C3 might have cell-protective activity to any of eight generic toxins.
Cell survival assay was performed in 96-well plates using CellTiter-Glo Luminescent Cell Viability Assay kit (Promega) that measures cellular ATP content. The CellTiter-Glo reagent was diluted by adding 2 volumes of PBS containing 1% Triton X-100. 50 μl of diluted reagent was directly added to 100 μl of cell culture medium per well. […] Luminescence was recorded by Tecan […]luor Plus reader (Tecan). Cell survival was presented as the percentage of viable cells compared with untreated control, and mean±SD was calculated from duplicates. The dox:tox assay of P7C3 analogs was carried out in the HTS Core (University of Texas Southwestern Medical Center) using the EnVison multimode plate reader (Perkin Elmer).

[3] = tested on: hippocampal neurogenesis (Dentate Gyrus); assay: in vivo neurogenesis assay (BrdU+ cells in dentate gyrus); set-up: species or system mice; settings: living mice; vehicle (DMSO) 7.3
Summary of the method: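 New hippocampal cells were tracked by daily BrdU injections and anti-BrdU staining of brain sections. Adult mice (two per pool of ten compounds) got week-long intracerebroventricular infusion by mini-pump, dosed for mid-nanomolar exposure.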

U2OS cells [4] = assay: doxorubicin toxicity (dox:tox) protection assay, Cell Titer Glo cell survival; type: cell-based; settings: cultured U2OS cells
Text: FIGS. 2A-2D. […] (FIG. 2A) Chemical structure of P7C3-S326. […] (FIG. 2C) Formulas used for calculating doxorubicin toxicity (dox:tox) protection activity. Protection activity is expressed by (Sinf−S0)/AC50 in the twelve-point dose response curve (DRC) corresponding to each compound, wherein both efficacy and potency of compounds were considered. Sinf represents the expected maximal protection. S0 is the baseline. […] In the photo-crosslinking assays, the p70 band intensity was quantified by Image J, and compared the sample of P7C3-S326 alone with that of P7C3-S326 plus competitor. Pearson correlation coefficient (r) and two tailed P value were determined by GraphPad Prism 6 and Spearman Rank Correlation (v1.0.1) software.
FIG. 10. Twelve-point dose response curves (DRC) of all tested compounds in doxorubicin toxicity protection assay. […] Cell viability was determined by Cell Titer Glo assay kit.
Cell survival assay was performed in 96-well plates using CellTiter-Glo Luminescent Cell Viability Assay kit (Promega) that measures cellular ATP content. The CellTiter-Glo reagent was diluted by adding 2 volumes of PBS containing 1% Triton X-100. 50 μl of diluted reagent was directly added to 100 μl of cell culture medium per well. Plates were incubated at room temperature for 10 minutes. Luminescence was recorded by Tecan […]luor Plus reader (Tecan). Cell survival was presented as the percentage of viable cells compared with untreated control, and mean±SD was calculated from duplicates. The dox:tox assay of P7C3 analogs was carried out in the HTS Core (University of Texas Southwestern Medical Center) using the EnVison multimode plate reader (Perkin Elmer).

With COc1cccc(NCC(F)Cn2c3ccc(Br)cc3c3cc(Br)ccc32)c1 (centres unmarked) [S10] the “NAD level relative to total metabolites” value (NAD in U2OS cells) was “dose-dependent replenishment of NAD”, the “rebound of NAD levels (NAD/NADH-Glo kit)” value [1] was “rebound of NAD levels” and the “protection from seven other toxins” value (U2OS cells [2]) was “no evidence of drug-mediated protection”. The “Neurogenesis # BrdU+ Cells (X10E06)/mm3 Dentate Gyrus” value [3] was 19.0 (X10E06)/mm3 and the “protection from doxorubicin-mediated toxicity (dox:tox assay)” value (U2OS cells [4]) was “protect cultured U2OS cells from doxorubicin-mediated toxicity”.
